Laboratory results taken from ChEMBL document CHEMBL1201862, “PubChem BioAssay data set” (2004).
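Five concentrations, 48 hours, 96-well plates. GI50: concentration for 50% inhibition of growth.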 Activity calls are given as the source filed them. Rule as the data show it: active = GI50 up to about 1.1 µM and inactive = higher. Where a SMILES comes first, the peptide text is derived from it.

Experiments:
Assay in all cases: NCI tumour cell line growth inhibition, 48 h
ACHN = system: ACHN
CCRF-CEM = system: CCRF-CEM
COLO 205 = system: COLO 205
DU-145 = system: DU-145
EKVX = system: EKVX
Hs-578T = system: Hs-578T
K562 = system: K562
KM12 = system: KM12
M14 = system: M14
MDA-MB-231 = system: MDA-MB-231
NCI-H226 = system: NCI-H226
OVCAR-5 = system: OVCAR-5
RXF 393 = system: RXF 393
SF-539 = system: SF-539
SK-MEL-28 = system: SK-MEL-28
SK-OV-3 = system: SK-OV-3
SN12C = system: SN12C
SNB-19 = system: SNB-19
T47D = system: T47D

Measured: GI50

COc1ccc2nc3ccc(OC)cc3c([S+]([O-])Cc3ccccc3)c2c1 (stereo not drawn)
inactive: ACHN 4.03 µM | CCRF-CEM 2.65 µM | COLO 205 7.26 µM | DU-145 2.07 µM | EKVX 16.3 µM | Hs-578T 8.22 µM | K562 8.51 µM | KM12 17.8 µM | M14 14.4 µM | MDA-MB-231 16 µM | NCI-H226 19.4 µM | OVCAR-5 15.7 µM | RXF 393 13.6 µM | SF-539 7.73 µM | SK-MEL-28 9.33 µM | SK-OV-3 18.8 µM | SN12C 7.62 µM | SNB-19 18 µM | T47D 2.11 µM

CCOP(=O)(CN1CCNCCN(CP(=O)(OCC)OCC)CC1)OCC
inactive: ACHN > 100 µM | CCRF-CEM > 31.6 µM | COLO 205 > 100 µM | DU-145 > 100 µM | EKVX > 100 µM | Hs-578T > 100 µM | K562 > 100 µM | KM12 > 100 µM | M14 > 100 µM | MDA-MB-231 > 100 µM | NCI-H226 > 100 µM | OVCAR-5 > 100 µM | RXF 393 > 100 µM | SF-539 > 100 µM | SK-MEL-28 > 100 µM | SK-OV-3 > 100 µM | SN12C > 100 µM | SNB-19 > 100 µM | T47D > 100 µM

CC(=O)Nc1c(C(=N)C#N)ncn1CCO
inactive: ACHN > 100 µM | CCRF-CEM > 100 µM | COLO 205 > 100 µM | DU-145 > 100 µM | EKVX > 100 µM | Hs-578T > 100 µM | K562 > 100 µM | KM12 > 100 µM | M14 > 100 µM | MDA-MB-231 > 100 µM | NCI-H226 > 100 µM | OVCAR-5 > 100 µM | RXF 393 > 100 µM | SF-539 > 100 µM | SK-MEL-28 > 100 µM | SK-OV-3 > 100 µM | SN12C > 100 µM | SNB-19 > 100 µM | T47D > 100 µM

NCCSS(=O)(=O)CCN
inactive: ACHN > 100 µM | CCRF-CEM > 100 µM | COLO 205 > 100 µM | DU-145 > 100 µM | EKVX > 100 µM | Hs-578T > 100 µM | K562 > 100 µM | KM12 > 100 µM | M14 > 100 µM | MDA-MB-231 > 100 µM | NCI-H226 > 100 µM | OVCAR-5 > 100 µM | RXF 393 > 100 µM | SF-539 > 100 µM | SK-MEL-28 > 100 µM | SK-OV-3 > 100 µM | SN12C > 100 µM | SNB-19 > 100 µM | T47D > 100 µM

CC(=O)OC1=C(CC(C)(C)C)C(=O)c2ccccc2C1=O
inactive: ACHN 35.6 µM | CCRF-CEM 19.3 µM | COLO 205 23.6 µM | DU-145 46.7 µM | EKVX 37 µM | Hs-578T 14.5 µM | K562 18.5 µM | KM12 32.2 µM | M14 30.4 µM | MDA-MB-231 87.7 µM | NCI-H226 19.8 µM | RXF 393 28.3 µM | SF-539 26.5 µM | SK-MEL-28 42.4 µM | SK-OV-3 25.3 µM | SNB-19 42.6 µM | T47D 44.2 µM

CCc1c(Cl)nc(Cl)nc1Cl
active: ACHN 0.076 µM | CCRF-CEM < 0.0121 µM | COLO 205 0.0764 µM | EKVX 0.519 µM | K562 0.0208 µM | KM12 1.08 µM | M14 0.0438 µM | MDA-MB-231 0.346 µM | NCI-H226 0.0692 µM | OVCAR-5 0.324 µM | RXF 393 0.296 µM | SF-539 0.372 µM | SN12C 0.333 µM | T47D 0.339 µM
inactive: DU-145 2.05 µM | Hs-578T 1.13 µM | SK-MEL-28 1.63 µM | SK-OV-3 3.07 µM | SNB-19 1.45 µM

COc1ccc(C(=O)N(Cc2cccnc2)C(=S)N(Cc2cccnc2)C(=O)c2ccc(OC)cc2)cc1
inactive: ACHN > 100 µM | CCRF-CEM > 100 µM | COLO 205 > 100 µM | DU-145 > 100 µM | EKVX > 100 µM | Hs-578T > 100 µM | K562 > 100 µM | KM12 70.8 µM | M14 > 100 µM | MDA-MB-231 > 100 µM | NCI-H226 > 100 µM | OVCAR-5 > 100 µM | RXF 393 38.8 µM | SF-539 > 100 µM | SK-MEL-28 > 100 µM | SK-OV-3 67.3 µM | SN12C > 100 µM | SNB-19 40.3 µM | T47D > 100 µM

O=C(Cn1c(C(=O)c2ccccc2)nc2ccccc21)c1ccccc1
inactive: ACHN > 100 µM | CCRF-CEM > 100 µM | COLO 205 > 100 µM | DU-145 > 100 µM | EKVX > 100 µM | Hs-578T 30.5 µM | KM12 > 100 µM | M14 > 100 µM | MDA-MB-231 > 100 µM | NCI-H226 > 100 µM | OVCAR-5 > 100 µM | RXF 393 > 100 µM | SF-539 > 100 µM | SK-MEL-28 > 100 µM | SK-OV-3 > 100 µM | SN12C > 100 µM | SNB-19 > 100 µM | T47D > 100 µM

CC(C)CC(NC(=O)C(Cc1ccccc1)NC(=O)C(Cc1c[nH]c2ccccc12)NC(=O)CNC(=O)C(N)Cc1ccc(O)cc1)C(=O)O (stereo not drawn) (H-YGWFL-OH; configuration not given here)
inactive: ACHN 44.5 µM | CCRF-CEM 42.6 µM | COLO 205 16.4 µM | DU-145 31.8 µM | EKVX 35.2 µM | Hs-578T 42 µM | KM12 24.6 µM | M14 47.6 µM | MDA-MB-231 52.1 µM | NCI-H226 46.8 µM | OVCAR-5 > 100 µM | RXF 393 40.3 µM | SF-539 33.8 µM | SK-MEL-28 95.3 µM | SK-OV-3 > 100 µM | SN12C 48.6 µM | SNB-19 51.6 µM | T47D 25.6 µM

COc1cc(/C=C/C(=N\NS(=O)(=O)c2ccc(C)cc2)c2sc(NNC(C)=O)nc2C)ccc1O
inactive: ACHN > 100 µM | CCRF-CEM > 100 µM | COLO 205 > 100 µM | DU-145 > 100 µM | EKVX > 100 µM | Hs-578T > 100 µM | KM12 > 100 µM | M14 > 100 µM | MDA-MB-231 69.2 µM | NCI-H226 > 100 µM | OVCAR-5 > 100 µM | RXF 393 > 100 µM | SF-539 > 100 µM | SK-MEL-28 > 100 µM | SK-OV-3 > 100 µM | SN12C > 100 µM | SNB-19 > 100 µM | T47D > 100 µM

O=C(CC(O)(C(F)(F)F)C(F)(F)Cl)CC(O)(C(F)(F)F)C(F)(F)Cl (stereo not drawn)
inactive: ACHN 1.77 µM | CCRF-CEM 3.86 µM | COLO 205 1.69 µM | DU-145 1.17 µM | EKVX 2.37 µM | Hs-578T 2.07 µM | K562 2.76 µM | KM12 3.09 µM | M14 3.65 µM | MDA-MB-231 2.05 µM | NCI-H226 2.36 µM | RXF 393 2.23 µM | SF-539 1.34 µM | SK-MEL-28 4.34 µM | SK-OV-3 1.4 µM | SN12C 1.5 µM | SNB-19 2.22 µM | T47D 1.49 µM

[N-]=[N+]=NC[C@H]1OCO[C@H](CN=[N+]=[N-])[C@@H](OCCOCCCl)[C@@H]1OCCOCCCl
inactive: CCRF-CEM > 100 µM | COLO 205 > 100 µM | DU-145 > 100 µM | EKVX > 100 µM | Hs-578T 80 µM | K562 > 100 µM | KM12 > 100 µM | M14 > 100 µM | MDA-MB-231 > 100 µM | NCI-H226 > 100 µM | RXF 393 5.66 µM | SF-539 > 100 µM | SK-MEL-28 > 100 µM | SK-OV-3 > 100 µM | SN12C > 100 µM | SNB-19 > 100 µM | T47D > 100 µM

Cc1cc2[nH]c3[nH]c(=O)[nH]c(=O)c3c2cc1C
inactive: ACHN > 100 µM | CCRF-CEM > 100 µM | COLO 205 > 100 µM | DU-145 > 100 µM | EKVX 20.3 µM | Hs-578T 69 µM | KM12 > 100 µM | M14 > 100 µM | MDA-MB-231 24.4 µM | NCI-H226 > 100 µM | OVCAR-5 > 100 µM | RXF 393 > 100 µM | SF-539 > 100 µM | SK-OV-3 > 100 µM | SN12C > 100 µM | SNB-19 89.3 µM | T47D > 100 µM

Cc1ncc(CSC(=N)N)n1Cc1ccccc1
inactive: ACHN > 100 µM | COLO 205 33.1 µM | DU-145 22.5 µM | EKVX 96.8 µM | Hs-578T 95.7 µM | K562 66.8 µM | KM12 > 100 µM | M14 48.1 µM | MDA-MB-231 > 100 µM | NCI-H226 > 100 µM | OVCAR-5 > 100 µM | RXF 393 7.78 µM | SF-539 43.6 µM | SK-MEL-28 > 100 µM | SK-OV-3 > 100 µM | SN12C 43.5 µM | SNB-19 > 100 µM | T47D 26.1 µM

CCn1c(=O)ccc2ccc(N(CCO)CCO)nc21
inactive: ACHN > 100 µM | CCRF-CEM > 100 µM | COLO 205 > 100 µM | DU-145 > 100 µM | EKVX > 100 µM | Hs-578T > 100 µM | K562 > 100 µM | KM12 > 100 µM | M14 > 100 µM | MDA-MB-231 > 100 µM | NCI-H226 > 100 µM | OVCAR-5 > 100 µM | RXF 393 > 100 µM | SK-MEL-28 > 100 µM | SK-OV-3 > 100 µM | SN12C > 100 µM | SNB-19 > 100 µM | T47D > 100 µM
